Source: the NIST ThermoML archive (doi:10.1016/j.jct.2013.12.012)
Where “and” joins values, the source holds several entries; their conditions need not be identical. Equal values may be shown once. ± gives the expanded uncertainty stated by the source.

Tests used:
[1] = molar heat capacity at constant pressure
[2] = for vapor or sublimation pressure: Closed cell (Static) method; for Normal melting temperature / Triple point temperature: DTA
[3] = Molar enthalpy of transition or fusion; conditions: DSC

C=C1C2CCC(C2)C1(C)C (stereo not drawn) [2,2-dimethyl-3-methylenebicyclo[2.2.1]heptane]
[1], 101.33 kPa, Large sample (1 g) DSC
Conditions | molar heat capacity at constant pressure [J/K/mol]
258.1 K, Crystal | 211.1 ± 3.7
263.2 K, Crystal | 213.9 ± 3.7
268.3 K, Crystal | 216.8 ± 3.7
273.4 K, Crystal | 219.8 ± 3.8
278.5 K, Crystal | 222.7 ± 3.8
283.6 K, Crystal | 225.7 ± 3.9
288.7 K, Crystal | 228.8 ± 4
293.8 K, Crystal | 231.9 ± 4
298.9 K, Crystal | 235.1 ± 4.1
324.5 K, Liquid | 251.5 ± 4.3
329.6 K, Liquid | 254.5 ± 4.4
334.7 K, Liquid | 257.4 ± 4.5
339.8 K, Liquid | 259.8 ± 4.5
344.9 K, Liquid | 262.3 ± 4.6
350 K, Liquid | 265.6 ± 4.6
355.1 K, Liquid | 269.3 ± 4.7

[2], Crystal
Conditions | vapor or sublimation pressure
238.15 K | 0.003435 ± 0.00016 kPa and 0.003436 ± 0.00016 kPa
243.15 K | 0.005761 ± 0.00025 kPa and 0.005765 ± 0.00025 kPa and 0.005768 ± 0.00025 kPa
248.15 K | 0.00946 ± 0.0004 kPa and 0.009464 ± 0.0004 kPa and 0.009473 ± 0.0004 kPa
253.15 K | 0.01527 ± 0.00059 kPa
258.15 K | 0.0241 ± 0.0008 kPa and 0.02413 ± 0.0008 kPa
263.15 K | 0.03746 ± 0.0011 kPa and 0.03747 ± 0.0011 kPa
268.15 K | 0.05698 ± 0.0016 kPa and 0.05699 ± 0.0016 kPa
273.15 K | 0.08514 ± 0.0023 kPa and 0.08515 ± 0.0023 kPa and 0.08516 ± 0.0023 kPa
273.65 K | 0.0885 ± 0.0024 kPa and 0.08853 ± 0.0024 kPa and 0.08854 ± 0.0024 kPa
278.15 K | 0.1252 ± 0.0033 kPa
283.15 K | 0.1811 ± 0.0043 kPa
288.15 K | 0.2585 ± 0.006 kPa and 0.2586 ± 0.006 kPa and 0.2587 ± 0.006 kPa
293.15 K | 0.3628 ± 0.0082 kPa and 0.363 ± 0.0082 kPa and 0.3631 ± 0.0082 kPa
298.15 K | 0.5037 ± 0.011 kPa and 0.5038 ± 0.011 kPa and 0.5039 ± 0.011 kPa
303.15 K | 0.6891 ± 0.015 kPa and 0.6896 ± 0.015 kPa and 0.69 ± 0.015 kPa
308.15 K | 0.934 ± 0.02 kPa and 0.9343 ± 0.02 kPa and 0.9345 ± 0.02 kPa

Crystal
Conditions | Molar enthalpy of transition or fusion [kcal/mol] | Normal melting temperature [°C]
[2] | – | 44.5 ± 0.5
[3] | 0.645 ± 0.0956 | –

CC1(C)[C@H]2CC[C@]1(C)C(=O)C2 [(1S)-1,7,7-trimethylbicyclo[2.2.1]heptan-2-one]
[1], 101.33 kPa, Crystal 2, Large sample (1 g) DSC
Conditions | molar heat capacity at constant pressure [J/K/mol]
273.4 K | 241 ± 4.2
278.5 K | 242 ± 4.2
283.6 K | 243 ± 4.2
288.7 K | 244.9 ± 4.2
293.8 K | 246.6 ± 4.2
298.9 K | 248.9 ± 4.3
304 K | 251 ± 4.3
309.1 K | 253.2 ± 4.4
314.2 K | 255.5 ± 4.4
319.4 K | 256.9 ± 4.5
324.5 K | 259.7 ± 4.5
329.6 K | 262.5 ± 4.6
334.7 K | 264.8 ± 4.6
339.8 K | 267.2 ± 4.7
344.9 K | 270.5 ± 4.7
350 K | 273.6 ± 4.7
355.1 K | 276.7 ± 4.8

[2], Crystal 2
Conditions | vapor or sublimation pressure
273.65 K | 0.00359 ± 0.00017 kPa and 0.003604 ± 0.00017 kPa and 0.003606 ± 0.00017 kPa
278.15 K | 0.005406 ± 0.00023 kPa and 0.005414 ± 0.00023 kPa and 0.00542 ± 0.00023 kPa
283.15 K | 0.008302 ± 0.00034 kPa and 0.008322 ± 0.00034 kPa and 0.008324 ± 0.00034 kPa
288.15 K | 0.01261 ± 0.0005 kPa and 0.01262 ± 0.0005 kPa and 0.0126 ± 0.0005 kPa
293.15 K | 0.01883 ± 0.0006 kPa and 0.01885 ± 0.00061 kPa and 0.01888 ± 0.00061 kPa
298.15 K | 0.02802 ± 0.00075 kPa and 0.02806 ± 0.00075 kPa and 0.02812 ± 0.00075 kPa
303.15 K | 0.04122 ± 0.00097 kPa and 0.04127 ± 0.00097 kPa
308.15 K | 0.05983 ± 0.0013 kPa and 0.05985 ± 0.0013 kPa and 0.05989 ± 0.0013 kPa

Conditions | Molar enthalpy of transition or fusion, Crystal 1 [kcal/mol] | Molar enthalpy of transition or fusion, Crystal 2 [kcal/mol] | Molar enthalpy of transition or fusion, Crystal 3 [kcal/mol] | Normal melting temperature, Crystal 1 [°C] | Triple point temperature, Crystal 2 [K] | Triple point temperature, Crystal 3 [K]
[2] | – | – | – | 175.4 ± 0.5 | 373.4 ± 1.1 | 243.9 ± 0.5
[3] | 1.17 ± 0.0717 | 0.0478 ± 0.0239 | 2.63 ± 0.0956 | – | – | –

CC1(C)[C@H]2CC[C@]1(C)[C@H](O)C2 [(1S-endo)-1,7,7-trimethylbicyclo[2.2.1]heptan-2-ol]
[1], 101.33 kPa, Crystal 2, Large sample (1 g) DSC
Conditions | molar heat capacity at constant pressure [J/K/mol]
273.4 K | 237.9 ± 4.2
278.5 K | 241.9 ± 4.2
283.6 K | 246.4 ± 4.2
288.7 K | 250.5 ± 4.3
293.8 K | 255.4 ± 4.4
298.9 K | 261.2 ± 4.5
304 K | 266.7 ± 4.7
309.1 K | 272.5 ± 4.7
314.2 K | 279 ± 4.8
319.4 K | 286.1 ± 5
324.5 K | 293.6 ± 5.1
329.6 K | 302 ± 5.2
334.7 K | 311 ± 5.4

[2], Crystal 2
Conditions | vapor or sublimation pressure
273.65 K | 0.000211 ± 0.00011 kPa and 0.000212 ± 0.00011 kPa
278.15 K | 0.00036 ± 0.00011 kPa and 0.000361 ± 0.00011 kPa
283.15 K | 0.000638 ± 0.00012 kPa and 0.000639 ± 0.00012 kPa
288.15 K | 0.001105 ± 0.00012 kPa and 0.001106 ± 0.00012 kPa and 0.001104 ± 0.00012 kPa
293.15 K | 0.001882 ± 0.00014 kPa and 0.001883 ± 0.00014 kPa
298.15 K | 0.003159 ± 0.00017 kPa and 0.003161 ± 0.00017 kPa and 0.003162 ± 0.00017 kPa
303.15 K | 0.005213 ± 0.00023 kPa and 0.005214 ± 0.00023 kPa and 0.005215 ± 0.00023 kPa
308.15 K | 0.008461 ± 0.00035 kPa and 0.008464 ± 0.00035 kPa and 0.008465 ± 0.00035 kPa

Conditions | Molar enthalpy of transition or fusion, [3] [kcal/mol] | Normal melting temperature, [2] [°C] | Triple point temperature, [2] [K]
Crystal 1 | 1.74 ± 0.0956 | 207.2 ± 0.5 | –
Crystal 2 | 0.765 ± 0.0717 | – | 347.9 ± 0.5

CC1(C)C(=O)[C@@]2(C)CC[C@@H]1C2 [(+)-fenchone]
[1], 101.33 kPa
Conditions | molar heat capacity at constant pressure [J/K/mol]
273.4 K, Metastable liquid, Large sample (1 g) DSC | 259.6 ± 4.5
278.5 K, Metastable liquid, Large sample (1 g) DSC | 260.7 ± 4.5
283.6 K, Large sample (1 g) DSC, Liquid | 263.6 ± 4.6
288.7 K, Large sample (1 g) DSC, Liquid | 264.6 ± 4.6
293.8 K, Large sample (1 g) DSC, Liquid | 266.6 ± 4.7
298.9 K, Large sample (1 g) DSC, Liquid | 269.8 ± 4.7
304 K, Large sample (1 g) DSC, Liquid | 271.8 ± 4.7
309.1 K, Large sample (1 g) DSC, Liquid | 274.4 ± 4.7
314.2 K, Large sample (1 g) DSC, Liquid | 277 ± 4.8
319.4 K, Large sample (1 g) DSC, Liquid | 278.9 ± 4.8
324.5 K, Large sample (1 g) DSC, Liquid | 281.7 ± 4.9
329.6 K, Large sample (1 g) DSC, Liquid | 284.7 ± 4.9
334.7 K, Large sample (1 g) DSC, Liquid | 287.3 ± 5
339.8 K, Large sample (1 g) DSC, Liquid | 289.9 ± 5
344.9 K, Large sample (1 g) DSC, Liquid | 292.7 ± 5.1
350 K, Large sample (1 g) DSC, Liquid | 295.6 ± 5.2
355.1 K, Large sample (1 g) DSC, Liquid | 298.8 ± 5.2

[2]
Conditions | vapor or sublimation pressure
238.15 K, Crystal 2 | 0.00014 ± 0.0001 kPa and 0.000141 ± 0.0001 kPa and 0.000142 ± 0.0001 kPa
243.15 K, Crystal 2 | 0.000277 ± 0.00011 kPa and 0.000278 ± 0.00011 kPa
243.15 K, Metastable liquid | 0.000763 ± 0.00011 kPa and 0.000764 ± 0.00011 kPa
248.15 K, Crystal 2 | 0.000547 ± 0.00011 kPa and 0.000548 ± 0.00011 kPa
248.15 K, Metastable liquid | 0.001307 ± 0.00012 kPa and 0.001308 ± 0.00012 kPa
253.15 K, Crystal 2 | 0.001053 ± 0.00011 kPa and 0.001054 ± 0.00011 kPa
253.15 K, Metastable liquid | 0.002188 ± 0.00013 kPa and 0.002189 ± 0.00013 kPa
258.15 K, Crystal 2 | 0.001988 ± 0.00013 kPa and 0.001991 ± 0.00013 kPa and 0.001993 ± 0.00013 kPa
258.15 K, Metastable liquid | 0.003604 ± 0.00017 kPa and 0.003605 ± 0.00017 kPa
263.15 K, Crystal 2 | 0.0037 ± 0.00017 kPa and 0.003705 ± 0.00017 kPa
263.15 K, Metastable liquid | 0.005827 ± 0.00025 kPa and 0.005828 ± 0.00025 kPa and 0.005829 ± 0.00025 kPa
268.15 K, Crystal 2 | 0.006751 ± 0.00028 kPa and 0.006753 ± 0.00028 kPa
268.15 K, Metastable liquid | 0.009242 ± 0.00037 kPa and 0.009244 ± 0.00037 kPa and 0.009246 ± 0.00037 kPa
273.15 K, Crystal 2 | 0.01206 ± 0.00048 kPa
273.15 K, Metastable liquid | 0.01436 ± 0.00053 kPa
278.15 K, Crystal 1 | 0.02111 ± 0.00064 kPa and 0.02112 ± 0.00064 kPa
278.15 K, Metastable liquid | 0.02193 ± 0.00065 kPa and 0.02194 ± 0.00065 kPa
283.15 K, Liquid | 0.03289 ± 0.00082 kPa and 0.0329 ± 0.00082 kPa and 0.03291 ± 0.00082 kPa
288.15 K, Liquid | 0.04842 ± 0.0011 kPa and 0.04845 ± 0.0011 kPa
293.15 K, Liquid | 0.07036 ± 0.0015 kPa and 0.07037 ± 0.0015 kPa
298.15 K, Liquid | 0.1007 ± 0.002 kPa and 0.1008 ± 0.002 kPa
303.15 K, Liquid | 0.1421 ± 0.0024 kPa
308.15 K, Liquid | 0.1977 ± 0.0031 kPa and 0.1978 ± 0.0031 kPa

Conditions | Molar enthalpy of transition or fusion, [3] [kcal/mol] | Normal melting temperature, [2] [°C] | Triple point temperature, [2] [K]
Crystal 1 | – | 5.5 ± 0.5 | –
Crystal 2 | 4.16 ± 0.12 | – | 278 ± 0.5
